Measurements reported in US8143237B2, “Anti-cancer drugs, and uses relating for malignant melanoma and other cancers” (Kasina Laila Innova Pharmaceuticals Private Limited, priority 2009, dated 2012).
Entries after “also recorded” stand apart in the source; their conditions may differ. Where two headings read alike, the source gives them in different places.

Experiments:
B16F0 cells = assay: B16 F0 mouse melanoma cell colony formation assay; format: cell-based; conditions: 8 days
Procedure: Inhibitory efficacy in clone formation of the Compound 1 and DTIC was tested by following the procedure described earlier with some modifications. Briefly, B 16F0 cells were harvested and seeded into 6-well plates (100 cells/ml). The cells were allowed to grow for 4 days and thereafter, the cells were incubated with DMEM containing either 0.1% DMS 0 or 100 μg/ml DTIC or different concentrations (1, 5, 10 or 20 μg/ml) of Compound 1 for further 8 days. Fresh medium containing test agents was replaced at every 24 h. Finally, the wells were washed three times with PBS and fixed in methanol for 15 min. The cells were stained with Giemsa stain and observed under microscope. The image of the stained wells were captured digitally (Kodak Image Station 4000 mM, Carestream Health Inc., New Haven, Conn.) and number of colonies were counted and analyzed by using NIH Image J software.

[1] = tested on: Human umbilical vein endothelial cells (HUVEC); assay: In vitro endothelial capillary tube formation assay; format: cell-based; conditions: 16 h
Procedure: In vitro capillary formation assay was performed with Human umbilical vein endothelial cells (HUVEC), cultured on 10 mg/ml basement membrane extract (BME-Cultrex®, R&D Systems, USA) bed. The protocol of in vitro endothelial tube formation assay was the same as described earlier with some modifications (Diana G et al., J. Cell Biol. 1995; Volume 130: 207-215.). Briefly, four hundred microliters of Cultrex was coated at 4° C. in each well of 24-well culture plate and allowed to gel at 37° C. for 1 h. HUVECs were plated at a density of 7.5×10^4 cells per well with 400 μl of DMEM supplemented with 10% fetal bovine serum and 4.5 g/l D-glucose. The cells were then treated with either DTIC or Compound 1 at desired concentration as indicated for 16 hours. Vehicle control cultures received only 0.1% DMSO. Pictures were taken under a Nikon Eclipse TS 100 microscope equipped with a Nikon Coolpix camera.

[2] = tested on: Human umbilical vein endothelial cells (HUVEC); assay: Endothelial cell migration assay; format: cell-based; conditions: 5 and 10 μg/ml, 18 h
Procedure: The methodology of endothelial cell migration assay was essentially the same as described earlier with some modifications (Sengupta, K et al., Mol. Cancer. Res. 2004; 2: 150-158.). FALCON™ Cell Culture inserts (Becton Dickinson, USA) with 8 μm-pores in their PET membrane was coated with 0.1 mg/ml of collagen. Human umbilical vein endothelial cells (HUVEC) were added to the cell culture inserts (Becton Dickinson) at a density of 5×10^4 cells/insert. Cells were allowed to migrate through the insert for 18 h in presence of different concentrations of either DTIC or Compound 1. The control culture containing migration assembly received only 0.1% DMSO. […] The membranes of the inserts were then mounted on glass slides. Cells migrated through the membrane pores were counted in 20 random fields under Nikon Eclipse TS 100 microscope at 20× objective.

[3] = tested on: A375 human melanoma xenograft; assay: A375 human melanoma xenograft model of nu/nu BALB/c nude mice; format: in vivo, mouse; conditions: 25 mg/kg daily intra-peritoneal, twenty one days, tumor volume, p=0.04322
Procedure: To further substantiate the anti-melanoma efficacy of the Compound 1, this compound was tested for its anti-melanoma efficacy in A375 human melanoma xenograft model of nu/nu BALB/c nude mice. The animals of 6-8 weeks age (body weight 18-22 g) were used in this study. Animals study protocols were approved by Institutional Ethics Committee (IAEC). All the studies were performed in compliance with the Committee for the Purpose of Control and Supervision of Experiments on Animals (CPCSEA) guidelines and OECD guidelines. Animals were allowed free access to sterile standard rodent diet and provided with charcoal filtered and UV exposed water ad libitum. The animals were housed in a sterile room and were located individually in ventilated cages. The room was maintained at a controlled temperature (24-26° C.), humidity (45-70%), and 12 h/12 h of light/dark cycle.
To induce the melanoma tumor, sub-confluent A375 human melanoma cells were harvested by brief trypsinization and 1×10^6 cells were injected subcutaneously in 0.2 ml phosphate-buffered saline. Drug treatment was started after development of palpable tumors (6-7 days after implantation of the cells). At this point the tumor take rate was 100%. […] After twenty one days of treatment, the animals were sacrificed by CO2 inhalation and tumors growth was measured by the following formula (Friedman H S et al., Mol Cancer Ther 2002; 1:943-948). […]

human plasma protein = conditions: at therapeutic concentrations; cited from earlier work
malignant melanoma = conditions: single-agent, malignant melanoma patients; cited from earlier work
[4] = cited from earlier work
[5] = patient with renal and hepatic dysfunctions

SMILES | Reduction in number of B16 colonies (B16F0 cells; at 1 μg/ml) | Reduction in number of B16 colonies (B16F0 cells; at 5 μg/ml) | Reduction in number of B16 colonies (B16F0 cells; at 10 μg/ml) | Reduction in number of B16 colonies (B16F0 cells; at 20 μg/ml) | melting point | Endothelial capillary-like tube formation ([1]; 5 and 10 μg/ml) | Migration of human endothelial cells (HUVEC) [2] | Inhibition of melanoma tumor growth, A375 human melanoma xenograft model of nude mice [3] | inhibition at 100 µg/mL (B16F0 cells; Mus musculus, B16F0, 192 h, at 100 μg/ml, read-out: Inhibition of B16 colony formation (number of colonies)) | Binding to human plasma protein (human plasma protein) | Endothelial capillary-like tube formation ([1]; 100 μg/ml) | Complete responses (malignant melanoma) | Initial half life of disappearance from plasma ([4]; biphasic disappearance) | Average cumulative excretion of unchanged drug in the urine ([4]; in six hours) | Initial half life of disappearance from plasma [4, 5] | Terminal half life of disappearance from plasma [4, 5]
Cc1[se]c(C(N)=O)cc1/N=N/N(C)C [Compound 1, 4-[(dimethylamino)diazenyl]-5-methylselenophene-2-carboxamide] | 11% | 35% | 54% | 94% | 170 to 172 °C | inhibition of capillary formation in a dose dependent manner; also recorded: exhibited anti-angiogenic properties | significant inhibition of migration; also recorded: inhibited endothelial cell migration | 46.52% |  |  |  |  |  |  |  | 
CN(C)N=Nc1[nH]cnc1C(N)=O [DTIC, 5-(3,3-dimethyl-1-trizeno)-imidazole-4-carboxamide, reference compound] |  |  |  |  |  |  |  |  | 35.8% | not appreciably bound | promoted capillary formation; also recorded: could not inhibit the endothelial capillary formation | less than 5 % of patients | 19 min | 40 % of the injected dose | 55 min | 432 min
